Test systems include A498; A549; BT-549; CAKI-1; COLO 205; HL-60; HT-29; KM12; LOX IMVI; MDA-N; Malme-3M; NCI/ADR-RES; PC-3; SF-268; SN12C; UACC-257; HOP-62; SNB-75; Hs-578T.
What all share (assay): inhibition of tumour cell growth, NCI panel, 48 h

Molecules are shown by their SMILES.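 Interpolation was linear, between the two tested concentrations surrounding the appropriate level; five concentrations were tested over 48 hours in 96-well plates. GI50 is the concentration that inhibits growth by half.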 Calls of active or inactive are those of the source. Rule as the data show it: active = GI50 up to about 1.1 µM and inactive = higher.

Turning to `NC(=O)c1csc(-c2ccc(CO)o2)n1`, the GI50 in the assay with A498, in the assay on A549, in the assay with BT-549, in the assay with CAKI-1, in the assay on COLO 205 and with HL-60 was > 100 µM (inactive) throughout. The GI50 in the assay with HT-29, in the assay with KM12, in the assay with LOX IMVI, in the assay on MDA-N, in the assay on Malme-3M and with NCI/ADR-RES was > 100 µM (inactive) each time. In addition, the GI50 in the assay on PC-3, with SF-268, in the assay with SN12C and in the assay on UACC-257 was > 100 µM (inactive) each time.
Consider `CCOc1ncn(-c2ccc(NC(=S)NC34CC5CC(CC(C5)C3)C4)cc2)n1`, for which the GI50 is 7.24 µM (inactive) in the assay on A549; > 100 µM (inactive) with BT-549; > 100 µM (inactive) in the assay on COLO 205; > 100 µM (inactive) in the assay on HL-60; 35.2 µM (inactive) with HOP-62; 80.5 µM (inactive) with HT-29. Moreover, the GI50 in the assay on KM12 was 8.47 µM (inactive); with LOX IMVI, > 100 µM (inactive); in the assay on MDA-N, > 100 µM (inactive); in the assay on PC-3, > 100 µM (inactive); with SF-268, > 100 µM (inactive); in the assay with SN12C it was > 100 µM (inactive). The GI50 is 25.4 µM (inactive) in the assay with SNB-75 and > 100 µM (inactive) in the assay with UACC-257.
As to `CCOC(=O)c1c(OCC)[nH]c(=O)c(C(c2ccc(F)cc2)c2c(O)c(C(=O)OCC)c(OCC)[nH]c2=O)c1O`, the GI50 is 11.4 µM (inactive) in the assay with A498; 14.8 µM (inactive) with A549; 9.71 µM (inactive) in the assay on BT-549; 18.9 µM (inactive) in the assay with CAKI-1; 25.9 µM (inactive) in the assay with COLO 205; 17.2 µM (inactive) in the assay on HL-60. For the same compound, the GI50 in the assay with HOP-62 was 13 µM (inactive); with HT-29, 16.1 µM (inactive); in the assay on Hs-578T, 20.8 µM (inactive); with KM12, 16.9 µM (inactive); with LOX IMVI, 16.6 µM (inactive); in the assay on Malme-3M, 8.32 µM (inactive). The GI50 in the assay on NCI/ADR-RES was 24.1 µM (inactive); in the assay with PC-3 it was 15.3 µM (inactive); with SF-268, 14.6 µM (inactive); with SN12C it was 14.7 µM (inactive); with UACC-257, 14.8 µM (inactive).
On to `Cc1ccc(N2CCN(CCC(=O)O)CC2)cc1`, for which the GI50 with A498 was > 100 µM (inactive); with A549 it was > 100 µM (inactive); with BT-549, > 100 µM (inactive); in the assay with CAKI-1 it was > 100 µM (inactive); with COLO 205 it was > 100 µM (inactive); in the assay with HL-60, 0.834 µM (active). In addition, the GI50 in the assay on HOP-62, in the assay on HT-29, with Hs-578T, in the assay on KM12, in the assay on LOX IMVI and with Malme-3M was > 100 µM (inactive) throughout. The GI50 in the assay with NCI/ADR-RES, with PC-3, in the assay on SF-268, in the assay on SN12C, in the assay with SNB-75 and with UACC-257 was > 100 µM (inactive) in each case.
As to `O=C(O)CC(NC(=O)/C(=C/c1ccccc1O)NC(=O)c1ccccc1)C(=O)O` (stereo not drawn), the GI50 was 50.5 µM (inactive) with A498; > 100 µM (inactive) with A549; 57 µM (inactive) in the assay on BT-549; 34.7 µM (inactive) in the assay on CAKI-1; > 100 µM (inactive) in the assay with COLO 205; 25.8 µM (inactive) in the assay with HL-60. For the same compound, the GI50 was > 100 µM (inactive) in the assay on HOP-62; 80.7 µM (inactive) in the assay with HT-29; > 100 µM (inactive) with KM12; > 100 µM (inactive) with LOX IMVI; > 100 µM (inactive) with MDA-N; 61.7 µM (inactive) in the assay on Malme-3M. The GI50 was > 100 µM (inactive) in the assay with NCI/ADR-RES; 86.1 µM (inactive) with PC-3; > 100 µM (inactive) in the assay on SN12C; 88.1 µM (inactive) in the assay on SNB-75; > 100 µM (inactive) in the assay on UACC-257.
In the case of `O=C1Cc2c([nH]c3ccccc23)C2(CC3CCCCN13)OCCO2` (stereo not drawn), the GI50 in the assay with A498, with A549, with BT-549, with CAKI-1, with COLO 205 and with HOP-62 was > 100 µM (inactive) in each case. For the same compound, the GI50 was > 100 µM (inactive) in the assay with HT-29; 89.9 µM (inactive) in the assay with Hs-578T; > 100 µM (inactive) in the assay on KM12; 62.2 µM (inactive) in the assay with Malme-3M; > 100 µM (inactive) in the assay with NCI/ADR-RES; > 100 µM (inactive) in the assay on PC-3. Besides, the GI50 with SF-268 is > 100 µM (inactive); with SN12C it was > 100 µM (inactive); in the assay on SNB-75 it was 62.8 µM (inactive); with UACC-257 it was > 100 µM (inactive).
As for `Cc1cc2ccccc2oc(=O)/c1=N\Nc1ccccc1`, the GI50 in the assay on A498 was > 100 µM (inactive); with A549, 74.3 µM (inactive); in the assay with BT-549, 78.9 µM (inactive); in the assay on CAKI-1, 37.4 µM (inactive); in the assay with COLO 205 it was > 100 µM (inactive); in the assay with HL-60 it was > 100 µM (inactive). The GI50 with HOP-62 is 19.3 µM (inactive); in the assay on HT-29, 64.6 µM (inactive); in the assay with KM12, 58.2 µM (inactive); with LOX IMVI, 60.1 µM (inactive); with MDA-N, > 100 µM (inactive); with Malme-3M it was > 100 µM (inactive). Besides, the GI50 in the assay with NCI/ADR-RES is 32.3 µM (inactive); in the assay on PC-3 it was 62.7 µM (inactive); in the assay with SN12C it was 65.3 µM (inactive); with SNB-75, 20.9 µM (inactive); in the assay on UACC-257, > 100 µM (inactive).
Consider `CCC(C)(C)C1CCC2c3c([nH]c4ccccc34)C3C(=O)N(c4ccc(OC)cc4)C(=O)C3C2C1` (stereo not drawn), for which the GI50 in the assay with A549 is 13.4 µM (inactive); in the assay on BT-549 it was 16.1 µM (inactive); in the assay on CAKI-1, 10.4 µM (inactive); with COLO 205 it was 10.3 µM (inactive); in the assay on HOP-62, 10.2 µM (inactive); in the assay on HT-29, 11.2 µM (inactive). Further, the GI50 in the assay on KM12 was 3.48 µM (inactive); in the assay with LOX IMVI, 6.81 µM (inactive); with MDA-N it was 18.7 µM (inactive); in the assay with Malme-3M it was 19.4 µM (inactive); in the assay on NCI/ADR-RES, 15.6 µM (inactive); with PC-3, 9.79 µM (inactive). Besides, the GI50 in the assay on SF-268 was 15 µM (inactive); in the assay with SN12C, 2.42 µM (inactive); in the assay with SNB-75, 16.2 µM (inactive); in the assay with UACC-257 it was 34 µM (inactive).
Regarding `CCOP(=O)(OCC)/C(C#N)=C/c1cccn1C(C)C`, the GI50 with A498, in the assay on A549, in the assay with BT-549, in the assay with CAKI-1, in the assay on COLO 205 and in the assay with HOP-62 was > 100 µM (inactive) throughout. Besides, the GI50 with HT-29, in the assay on KM12, in the assay on LOX IMVI, with MDA-N, with Malme-3M and in the assay with NCI/ADR-RES was > 100 µM (inactive) each time. For the same compound, the GI50 in the assay with PC-3, in the assay with SF-268, with SN12C, with SNB-75 and in the assay on UACC-257 was > 100 µM (inactive) throughout.
